Legend:
Type in all cases: in vivo, C57BL/6 mice
[1] = tested on: colony-forming cells (CFCs); assay: Mobilization of colony-forming cells (CFC/CFU) to blood and spleen, colony assays; details: for number of colony forming units mobilized to the spleen / total number (blood and spleen) of mobilized CFUs: Example 8: H and J 60 mg/kg, K 100 mg/kg; for number of colony forming units mobilized to the spleen / total number (blood and spleen) of mobilized CFUs / number of CFUs mobilized from the bone marrow to the blood and spleen: + G-CSF vs vehicle + G-CSF; for number of CFUs mobilized from the bone marrow to the blood and spleen: Example 7: D 60 mg/kg, E and F 20 mg/kg, FIG. 13
Procedure: Mobilization of colony-forming cells (CFCs) to the blood and spleen were measured (FIG. 1B).
This was divided into two experiments in which G-CSF was administered for 2 days in one experiment and 4 days in the other (FIG. 2). […] Mobilization of CFCs, phenotypic Lin^−CD41^−Sca1^+Kit^+ HSPCs and Lin^−CD41^− Sca1^+Kit^+CD48^−CD150^+ HSCs were measured in blood and spleens.
Additional HIF-α potentiating agents in the form of PHD inhibitors were tested for their ability to enhance mobilization induced by G-CSF.
(§1) At the end of treatment, blood was harvested by cardiac puncture, mice were sacrificed by cervical dislocation and spleens harvested. Femurs were removed, cleaned and the bone marrow was flushed with 1 mL PBS+10% newborn calf serum (NCS).
The number of phenotypic hematopoietic stem and progenitor cells remaining in the bone marrow following treatment was measured by flow cytometry using antibodies specific for lineage markers (CD3, CD5, CD45R/B220, F4/80, Gr1, CD41, Ter119), Sca-1, Kit, CD48 and CD150. Similarly, the number of phenotypic hematopoietic stem cells mobilized into the blood and spleen were measured. Colony assays were also performed on blood and spleen to determine the number of colony forming cells per mL of blood and per spleen. […] Levels of significance for differences were calculated using the Student's t-test.
All procedures were approved by the animal experimentation ethics committee of the University of Queensland. […] Plerixafor (AMD3100 octohydrochloride, Tocris Bioscience, Bristol, UK) was injected intraperitoneally as a single 16 mg/kg dose corresponding to 10 mg/kg of AMD3100 base. Tissues were harvested 1 h after Plerixafor administration. […] Control mice were injected with an equivalent volume of saline. At specified time-points, mice were anesthetized with isoflurane before cardiac puncture to harvest blood. Mice were then euthanized by cervical dislocation and BM and bones harvested.
Optimal concentrations of mouse IL-3, IL-6 and soluble kit ligand were added as conditioned media from stably transfected BHK cell lines. Colonies were counted after 7 days culture at 37° C. in a humidified incubator containing 5% CO2.

[2] = tested on: hematopoietic stem and progenitor cells; assay: Phenotypic HSCs, HSPCs and myeloid progenitors in blood, spleen and bone marrow by flow cytometry; details: for mobilization of myeloid progenitors (LKS−) to the blood / increase in mobilization of myeloid progenitors (LKS−) to the spleen / increase in number of HSPCs (LSK48+ and LSK) mobilized to the spleen / increase in number of phenotypic HSCs (LSK48−150+) mobilized to the spleen: Example 6: 20 mg/kg + G-CSF vs vehicle + G-CSF; for increase in mobilization of myeloid progenitors (LKS−) to the spleen / increase in number of HSPCs (LSK48+ and LSK) mobilized to the spleen / increase in number of phenotypic HSCs (LSK48−150+) mobilized to the spleen: FIGS. 8A-B; for total number of phenotypic HSPCs in the bone marrow: Example 6: 20 mg/kg once daily 3 days + rhuG-CSF 125 μg/kg twice daily 4 days vs vehicle + G-CSF, FIGS. 6A-B; for increase in total number of HSPCs (LSK48+ and LSK) mobilized from the bone marrow / increase in total number of myeloid progenitors (LKS−) mobilized from the bone marrow / increase in total number of phenotypic HSCs (LSK48−150+) mobilized from the bone marrow: Example 6: blood and spleen, 20 mg/kg + G-CSF vs vehicle + G-CSF, FIGS. 9A-B; for total number of HSPCs (LSK48+ and LSK) mobilized blood and spleen / total number of phenotypic HSCs (LSK48−150+) mobilized blood and spleen: Example 8: 60 mg/kg + G-CSF vs vehicle + G-CSF, FIGS. 14A-B; for total number of HSCs and progenitors in the BM / total number of myeloid progenitors (LKS−) mobilized: + G-CSF vs vehicle + G-CSF; for total number of myeloid progenitors (LKS−) mobilized: Example 7: D 60 mg/kg
Procedure: (§2) Additional HIF-α potentiating agents in the form of PHD inhibitors were tested for their ability to enhance mobilization induced by G-CSF. Compound A, Compound B or Compound C, were tested in male, 7 weeks-old C57BL/6 mice. Mice were injected twice daily sub-cutaneously with rhuG-CSF at a dose of 125 μg/kg per injection for four days. Mice were gavaged with 20 mg/kg Compound A, Compound B, Compound C or vehicle control once daily for three days beginning on day 1 of the experiment.
as §1
The number of phenotypic hematopoietic stem and progenitor cells remaining in the bone marrow following treatment was measured by flow cytometry using antibodies specific for lineage markers (CD3, CD5, CD45R/B220, F4/80, Gr1, CD41, Ter119), Sca-1, Kit, CD48 and CD150. Similarly, the number of phenotypic hematopoietic stem cells mobilized into the blood and spleen were measured. Colony assays were also performed on blood and spleen to determine the number of colony forming cells per mL of blood and per spleen. All results are presented as mean f standard deviation with n=6 per groups. Levels of significance for differences were calculated using the Student's t-test.
All procedures were approved by the animal experimentation ethics committee of the University of Queensland. All experiments were performed on nine to twelve-week old C57BL/6 male mice or genetically modified mice back-crossed at least 10 times into C57BL/6. Recombinant human G-CSF (Amgen, Thousand Oaks, Calif.) was injected twice daily subcutaneously at 125 μg/kg per injection for up to 4 consecutive days. Plerixafor (AMD3100 octohydrochloride, Tocris Bioscience, Bristol, UK) was injected intraperitoneally as a single 16 mg/kg dose corresponding to 10 mg/kg of AMD3100 base. Tissues were harvested 1 h after Plerixafor administration. […] Compounds H and J were administered at 60 mg/kg and Compound K was administered at 100 mg/kg. Control mice were injected with an equivalent volume of saline. At specified time-points, mice were anesthetized with isoflurane before cardiac puncture to harvest blood. Mice were then euthanized by cervical dislocation and BM and bones harvested.
Following flushing with PBS plus 2% NCS, enriched central BM cells were pelleted at 370×g for 5 minutes at 4° C. and resuspended in CD16/CD32 hybridoma 2.4G2 supernatant to block IgGFc receptors. HSCs were stained with the biotinylated lineage antibody cocktail (CD3, CD5, B220, CD11b, Gr-1, Ter119) and biotinylated CD41 together with streptavidin (SAV)-Pacific Blue, anti-Sca-1-PECY7, anti-KIT-APC, CD48-FITC and CD150-PE as previously described (17). Data were acquired on a CyAn (Dako Cytomation) flow cytometer and analyzed following compensation with single color controls using FlowJo software (Tree Star, Ashland, Oreg.).

white blood cells = assay: White blood cell number per mL of blood after mobilization treatment
Procedure: as §2, §1

[3] = Spleen weight after mobilization treatment
Procedure: Additional HIF-α potentiating agents in the form of PHD inhibitors were tested for their ability to enhance mobilization induced by G-CSF. Compound A, Compound B or Compound C, were tested in male, 7 weeks-old C57BL/6 mice. Mice were injected twice daily sub-cutaneously with rhuG-CSF at a dose of 125 μg/kg per injection for four days. […]
as §1

[4] = Example 6: 20 mg/kg + G-CSF vs vehicle + G-CSF, FIG. 10
[5] = Example 6: 20 mg/kg + G-CSF vs vehicle + G-CSF, FIG. 11
[6] = Example 8: H and J 60 mg/kg, K 100 mg/kg
[7] = Example 7: Compound D 60 mg/kg, E and F 20 mg/kg
[8] = Example 7: D 60 mg/kg, E and F 20 mg/kg, + G-CSF vs vehicle + G-CSF
[9] = Example 7: 20 mg/kg + G-CSF vs vehicle + G-CSF, FIGS. 12A-B

N#Cc1nc(C(=O)NCC(=O)O)c(O)c2c(Oc3ccc(Cl)cc3)cccc12 [Compound A, {[5-(4-Chloro-phenoxy)-1-cyano-4-hydroxy-isoquinoline-3-carbonyl]-amino}-acetic acid]
number of colony forming units mobilized to the blood [1, 4]: significantly increased
mobilization of myeloid progenitors (LKS−) to the blood [2]: did not significantly alter
increase in mobilization of myeloid progenitors (LKS−) to the spleen [2]: approximately 3 fold
increase in number of HSPCs (LSK48+ and LSK) mobilized to the spleen [2]: approximately 2 fold
increase in number of phenotypic HSCs (LSK48−150+) mobilized to the spleen [2]: approximately 2 fold
total number of phenotypic HSPCs in the bone marrow [2]: did not significantly alter
increase in total number of HSPCs (LSK48+ and LSK) mobilized from the bone marrow [2]: approximately 2 fold
increase in total number of myeloid progenitors (LKS−) mobilized from the bone marrow [2]: approximately 6 fold
increase in total number of phenotypic HSCs (LSK48−150+) mobilized from the bone marrow [2]: approximately 2 fold
number of white blood cells per mL of blood (white blood cells; [5]): significant increase
increase in spleen weight [3, 5]: approximately 2 fold

N#Cc1nc(C(=O)NCC(=O)O)c(O)c2ccn(Cc3ccccc3F)c12 [Compound C, {[7-Cyano-1-(2-fluoro-benzyl)-4-hydroxy-1H-pyrrolo[2,3-c]pyridine-5-carbonyl]-amino}-acetic acid]
number of colony forming units mobilized to the blood [1, 4]: significantly increased
mobilization of myeloid progenitors (LKS−) to the blood [2]: did not significantly alter
increase in mobilization of myeloid progenitors (LKS−) to the spleen [2]: approximately 3 fold
increase in number of HSPCs (LSK48+ and LSK) mobilized to the spleen [2]: approximately 2 fold
increase in number of phenotypic HSCs (LSK48−150+) mobilized to the spleen [2]: approximately 2 fold
total number of phenotypic HSPCs in the bone marrow [2]: did not significantly alter
increase in total number of HSPCs (LSK48+ and LSK) mobilized from the bone marrow [2]: approximately 2 fold
increase in total number of myeloid progenitors (LKS−) mobilized from the bone marrow [2]: approximately 6 fold
increase in total number of phenotypic HSCs (LSK48−150+) mobilized from the bone marrow [2]: approximately 2 fold
number of white blood cells per mL of blood (white blood cells; [5]): significant increase
increase in spleen weight [3, 5]: approximately 2 fold

COc1ccc(Oc2ccc3c(O)c(C(=O)NCC(=O)O)ncc3c2)cc1 [Compound J, {[4-Hydroxy-7-(4-methoxy-phenoxy)-isoquinoline-3-carbonyl]-amino}-acetic acid]
number of colony forming units mobilized to the blood ([1]; Example 8: 60 mg/kg + G-CSF vs vehicle control, FIG. 15): significant increase
number of colony forming units mobilized to the spleen ([1]; FIG. 15): significant increase
total number (blood and spleen) of mobilized CFUs ([1]; FIG. 15): significant increase
total number of HSPCs (LSK48+ and LSK) mobilized blood and spleen [2]: significant increase
total number of phenotypic HSCs (LSK48−150+) mobilized blood and spleen [2]: significant increase
total number of HSCs and progenitors in the BM [2, 6]: did not significantly alter

O=C(O)CNC(=O)c1c(O)n(C2CCCCC2)c(=O)n(C2CCCCC2)c1=O [Compound D, [(1,3-Dicyclohexyl-6-hydroxy-2,4-dioxo-1,2,3,4-tetrahydro-pyrimidine-5-carbonyl)-amino]-acetic acid]
number of CFUs mobilized from the bone marrow to the blood and spleen [1]: significantly increased
total number of HSCs and progenitors in the BM [2, 7]: did not significantly alter
total number of myeloid progenitors (LKS−) mobilized ([2]; E and F 20 mg/kg, FIGS. 12A-B): significantly increased
number of white blood cells per mL of blood (white blood cells; Example 7: D 60 mg/kg, E 20 mg/kg, + G-CSF vs vehicle + G-CSF): significant increase
increase in spleen weight [3, 8]: approximately 2 fold

O=C(O)CNC(=O)c1ncc(-c2cccc(F)c2)cc1O [Compound K, {[5-(3-Fluoro-phenyl)-3-hydroxy-pyridine-2-carbonyl]-amino}-acetic acid]
number of colony forming units mobilized to the spleen ([1]; FIG. 15): no significant change
total number (blood and spleen) of mobilized CFUs ([1]; FIG. 15): no significant change
total number of HSCs and progenitors in the BM [2, 6]: did not significantly alter

O=c1c(-n2ccnn2)c[nH]n1-c1cc(N2CCOCC2)ncn1 [Compound F, 2-(6-Morpholin-4-yl-pyrimidin-4-yl)-4-[1,2,3]triazol-1-yl-1,2-dihydro-pyrazol-3-one]
number of CFUs mobilized from the bone marrow to the blood and spleen [1]: significantly increased
total number of HSCs (LSK48-150+) mobilized from the bone marrow [2, 9]: significant increase
total number of HSPCs (LSK48+ and LSK) mobilized from the bone marrow [2, 9]: significant increase
total number of HSCs and progenitors in the BM [2, 7]: did not significantly alter
total number of myeloid progenitors (LKS−) mobilized ([2]; E and F 20 mg/kg, FIGS. 12A-B): significant increase
increase in spleen weight [3, 8]: approximately 2 fold

O=C(O)CNC(=O)c1ncc2cc(Oc3ccccc3)ccc2c1O [Compound H, [(4-Hydroxy-7-phenoxy-isoquinoline-3-carbonyl)-amino]-acetic acid]
number of colony forming units mobilized to the spleen ([1]; FIG. 15): significant increase
total number (blood and spleen) of mobilized CFUs ([1]; FIG. 15): significant increase
total number of HSPCs (LSK48+ and LSK) mobilized blood and spleen [2]: significant increase
total number of phenotypic HSCs (LSK48−150+) mobilized blood and spleen [2]: significant increase
total number of HSCs and progenitors in the BM [2, 6]: did not significantly alter
